Results taken from the C3SDB collision cross section collection.
“And” between values parts separate entries of the source, which are not always exact repeats. Equal values may be shown once.

Legend:
[1] = instrument: DT, stepped-field
[2] = instrument: TW, calibrated with polyalanine
[3] = instrument: DT, single field, calibrated with Agilent tune mix (Agilent)
[4] = instrument: DT, stepped-field; remark: listed apart in the source
[5] = instrument: DT, single field, calibrated with Agilent tune mix (Agilent); remark: listed apart in the source
[6] = instrument: TW, calibrated with phosphatidylcholines (ESI+) and phosphatidylethanolamines (ESI-)
[7] = instrument: DT, stepped-field; remark: listed apart in the source

O=c1nc[nH]c2nc[nH]c12 [Hypoxanthine]
collision cross section (N2) ([1]; [M+H]+): 135.79 Å² | collision cross section (N2) ([1]; [M+Na]+): 138.88 Å² | collision cross section (N2) ([2]; [M+H]+): 120 Å² | collision cross section (N2) ([3]; [M+H]+): 127.1 Å²

O=c1nc[nH]c2c1ncn2[C@@H]1O[C@H](CO)[C@@H](O)[C@H]1O [Inosine]
collision cross section (N2) ([1]; [M+H]+): 159.25 Å² | collision cross section (N2) ([1]; [M+Na]+): 175.37 Å² | collision cross section (N2) ([2]; [M+H]+): 153 Å² | collision cross section (N2) ([3]; [M+Na]+): 170.7 Å²

CCCCCCCCCCCCCCCC(=O)O[C@H](CO)COP(=O)(O)O [LPA(16:0)]
collision cross section (N2) ([4]; [M-H]-): 194.5 Å²

CCCCCC/C=C/CCCCCCCC(=O)OC[C@@H](O)COP(=O)([O-])OCC[N+](C)(C)C [LPC(16:1)]
collision cross section (N2) ([5]; [M+HCOO]-): 231.3 Å² | collision cross section (N2) ([4]; [M+H]+): 227.7 Å² | collision cross section (N2) ([6]; [M+H]+): 223.4 Å²

CCCCCCC/C=C\CCCCCCCC(=O)OC[C@@H](O)COP(=O)(O)OC[C@@H](O)CO [LPG(17:1)]
collision cross section (N2) ([4]; [M-H]-): 213.5 Å²

CCCCCCCC/C=C\CCCCCCCC(=O)OC[C@@H](O)COP(=O)(O)OC[C@@H](O)CO [LPG(18:1)]
collision cross section (N2) ([4]; [M-H]-): 217.9 Å² and 216.9 Å²

CCCCCC/C=C\CCCCCCCC(=O)OC[C@@H](O)COP(=O)(O)O[C@H]1C(O)C(O)C(O)[C@@H](O)C1O (stereo partly specified) [LPI(16:1)]
collision cross section (N2) ([4]; [M-H]-): 226.1 Å²

CCCCCCCCCCCCCCCCCC(=O)OC[C@@H](O)COP(=O)(O)O[C@H]1C(O)C(O)C(O)[C@@H](O)C1O (stereo partly specified) [LPI(18:0)]
collision cross section (N2) ([5]; [M+H]+): 244.7 Å² | collision cross section (N2) ([5]; [M-H]-): 236.8 Å² | collision cross section (N2) ([4]; [M-H]-): 236.1 Å²

OC[C@@H](O)[C@@H](O)[C@H](O)[C@H](O)CO [Mannitol]
collision cross section (N2) ([7]; [M+Li]+): 144.5 Å² | collision cross section (N2) ([7]; [M+Na]+): 140.6 Å² | collision cross section (N2) ([2]; [M+Na]+): 137 Å²

CCCC/C=C\C/C=C\CCCCCCCC(=O)O[C@H](COC(=O)CCCCCCCCCCCC)COP(=O)([O-])OCC[N+](C)(C)C [PC(14:1/16:1)]
collision cross section (N2) ([4]; [M+H]+): 279.6 Å²

CCCCCCCCCC/C=C\CCCCCCCCCC(=O)O[C@H](COC(=O)CCCCCCCCCCC)COP(=O)([O-])OCC[N+](C)(C)C [PC(16:0/18:1)]
collision cross section (N2) ([4]; [M+H]+): 291.4 Å² and 299.1 Å²

CCCCC/C=C\C/C=C\CCCCCCCCCC(=O)O[C@H](COC(=O)CCCCCCCCCCC)COP(=O)([O-])OCC[N+](C)(C)C [PC(16:1/16:1)]
collision cross section (N2) ([1]; [M+H]+): 280.16 Å² | collision cross section (N2) ([1]; [M+Na]+): 286.9 Å² | collision cross section (N2) ([4]; [M+H]+): 287.8 Å²

CCCCC/C=C\C/C=C\CCCCCCCCCC(=O)O[C@H](COC(=O)CCCCCCCCCCCCC)COP(=O)([O-])OCC[N+](C)(C)C [PC(16:1/18:1)]
collision cross section (N2) ([4]; [M+H]+): 295.3 Å² and 295.1 Å²

CCCC/C=C\CCCCCCCC(=O)OC[C@H](COP(=O)([O-])OCC[N+](C)(C)C)OC(=O)CCCCCCCCCCCCCCCCCCCCC [PC(18:0/18:1)]
collision cross section (N2) ([4]; [M+H]+): 306.1 Å² and 306 Å²

CCCCC/C=C\C/C=C\CCCCCCCCCCCC(=O)O[C@H](COC(=O)CCCCCCCCCCCCC)COP(=O)([O-])OCC[N+](C)(C)C [PC(18:1/18:1)]
collision cross section (N2) ([1]; [M+H]+): 296.42 Å² and 297.29 Å² | collision cross section (N2) ([1]; [M+Na]+): 298.03 Å² and 300.74 Å² | collision cross section (N2) ([4]; [M+H]+): 302.7 Å² and 302.8 Å²

CCCCC/C=C\C/C=C\CCCCCCCC(=O)OC[C@H](COP(=O)([O-])OCC[N+](C)(C)C)OC(=O)CCCCCCCCC/C=C\CCCCCC [PC(36:3)]
collision cross section (N2) ([5]; [M+HCOO]-): 289.4 Å² | collision cross section (N2) ([5]; [M+H]+): 288.8 Å² | collision cross section (N2) ([5]; [M+Na]+): 291.9 Å² | collision cross section (N2) ([4]; [M+H]+): 295.8 Å² | collision cross section (N2) ([6]; [M+CH3COO]-): 291.6 Å² | collision cross section (N2) ([6]; [M+H]+): 285.5 Å²

CCCCC/C=C\C/C=C\CCCCCCCC(=O)O[C@H](COCCCCCCCCCCCCCCCC)COP(=O)([O-])OCC[N+](C)(C)C [PC(o34:2)]
collision cross section (N2) ([4]; [M+H]+): 297.2 Å²

CCCCC/C=C\C/C=C\CCCCCCCC(=O)O[C@H](COCCCCCCCCCCCCCCCCCC)COP(=O)([O-])OCC[N+](C)(C)C [PC(o36:2)]
collision cross section (N2) ([4]; [M+H]+): 303.1 Å²

CCCCCC/C=C\CCCCCCCCCC(=O)O[C@H](COC(=O)CCCCCCCCCCCCCCC)COP(=O)(O)OCCN [PE(16:0/18:1)]
collision cross section (N2) ([4]; [M+H]+): 286.1 Å²

CCCCCCCC/C=C\CCCCCCCCCC(=O)O[C@H](COC(=O)CCCCCCCCCCCC)COP(=O)(O)OCCN [PE(33:1)]
collision cross section (N2) ([4]; [M-H]-): 266.7 Å²

CCCCC/C=C\C/C=C\C/C=C\CCCCC(=O)O[C@H](COCCCCCCCCCCCCCCCC)COP(=O)(O)OCCN [PE(o34:3)]
collision cross section (N2) ([7]; [M+Na]+): 278 Å² | collision cross section (N2) ([4]; [M-H]-): 266.5 Å²

CCCCCCCC/C=C\CCCCCCCCCC(=O)O[C@H](COC(=O)CCCCCCCCCCC)COP(=O)(O)OC[C@@H](O)CO [PG(16:0/16:1)]
collision cross section (N2) ([4]; [M-H]-): 268.7 Å²

CCCCCCCCCC/C=C\CCCCCCCCCC(=O)O[C@H](COC(=O)CCCCCCCCCCC)COP(=O)(O)OC[C@@H](O)CO [PG(16:0/18:1)]
collision cross section (N2) ([4]; [M-H]-): 276.7 Å² and 277.1 Å² and 277 Å²

CC/C=C\C/C=C\C/C=C\CCCCCCCC(=O)O[C@H](COC(=O)CCCCCCCCC/C=C\CCCCCCCC)COP(=O)(O)OC[C@@H](O)CO [PG(38:4)]
collision cross section (N2) ([5]; [M+NH4]+): 294.5 Å² | collision cross section (N2) ([5]; [M+Na]+): 290.2 Å² | collision cross section (N2) ([5]; [M-H]-): 278.7 Å² | collision cross section (N2) ([4]; [M-H]-): 285.6 Å² | collision cross section (N2) ([6]; [M+Na]+): 287.8 Å² | collision cross section (N2) ([6]; [M-H]-): 277.7 Å²

CCCCCCCCCCCCCCCC(=O)OC[C@H](COP(=O)(O)O[C@H]1C(O)C(O)C(O)[C@@H](O)C1O)OC(=O)CCCCCCCCCCCCC (stereo partly specified) [PI(14:0/16:0)]
collision cross section (N2) ([4]; [M-H]-): 280.1 Å²

CCCCC/C=C\C/C=C\CCCCCCCC(=O)O[C@H](COC(=O)CCCCCCCCCCC)COP(=O)(O)O[C@H]1C(O)C(O)C(O)[C@@H](O)C1O (stereo partly specified) [PI(14:1/16:1)]
collision cross section (N2) ([4]; [M-H]-): 283.6 Å²

CCCCCCCC/C=C\CCCCCCCCCC(=O)O[C@H](COC(=O)CCCCCCCCCCC)COP(=O)(O)O[C@H]1C(O)C(O)C(O)[C@@H](O)C1O (stereo partly specified) [PI(16:0/16:1)]
collision cross section (N2) ([4]; [M-H]-): 284.6 Å²

CCCC/C=C\CCCCCCCC(=O)OC[C@H](COP(=O)(O)O[C@H]1C(O)C(O)C(O)[C@@H](O)C1O)OC(=O)CCCCCCC/C=C\CCCCCCCC (stereo partly specified) [PI(16:1/16:1)]
collision cross section (N2) ([4]; [M-H]-): 282.9 Å²

CCCC/C=C\CCCCCCCC(=O)OC[C@H](COP(=O)(O)O[C@H]1C(O)C(O)C(O)[C@@H](O)C1O)OC(=O)CCCCCCCCC/C=C\CCCCCCCCCC (stereo partly specified) [PI(18:1/18:1)]
collision cross section (N2) ([4]; [M-H]-): 295.9 Å² and 296.2 Å²

CCCCC/C=C\C/C=C\C/C=C\CCCCC(=O)O[C@H](COC(=O)CCCCCCCCC/C=C\C/C=C\CCCCC)COP(=O)(O)O[C@H]1C(O)C(O)C(O)[C@@H](O)C1O (stereo partly specified) [PI(38:5)]
collision cross section (N2) ([5]; [M+H]+): 299.9 Å² | collision cross section (N2) ([5]; [M+Na]+): 298.7 Å² | collision cross section (N2) ([5]; [M-H]-): 291.8 Å² | collision cross section (N2) ([4]; [M-H]-): 302 Å² and 299.6 Å² | collision cross section (N2) ([6]; [M+Na]+): 294.5 Å² | collision cross section (N2) ([6]; [M-H]-): 290.9 Å²

CCCCC/C=C\C/C=C\CCCCCCCCCCCC(=O)O[C@H](COC(=O)CCCCCCCCCCCCC)COP(=O)(O)OC[C@H](N)C(=O)O [PS(36:2)]
collision cross section (N2) ([5]; [M+H]+): 283 Å² | collision cross section (N2) ([5]; [M+Na]+): 284.2 Å² | collision cross section (N2) ([5]; [M-H]-): 277.5 Å² | collision cross section (N2) ([4]; [M-H]-): 285 Å² and 286.5 Å² | collision cross section (N2) ([6]; [M-H]-): 277.4 Å²

CCCCC/C=C\C/C=C\C/C=C\CCCCCCC(=O)O[C@H](COC(=O)CCCCCCC/C=C\CCCCCCCC)COP(=O)(O)OC[C@H](N)C(=O)O [PS(38:4)]
collision cross section (N2) ([5]; [M+Na]+): 290.6 Å² | collision cross section (N2) ([4]; [M-H]-): 291.4 Å² | collision cross section (N2) ([6]; [M-H]-): 280.9 Å²

CCCCC/C=C\C/C=C\CCCCCCCCCCCC(=O)O[C@H](COC(=O)CCCCCCC/C=C\C/C=C\CCCCC)COP(=O)(O)OC[C@H](N)C(=O)O [PS(40:4)]
collision cross section (N2) ([5]; [M+H]+): 293.2 Å² | collision cross section (N2) ([5]; [M+Na]+): 297.6 Å² | collision cross section (N2) ([5]; [M-H]-): 286.9 Å² | collision cross section (N2) ([4]; [M-H]-): 297.6 Å²

O=c1ccn([C@@H]2O[C@H](CO)[C@@H](O)[C@H]2O)c(=O)[nH]1 [Uridine]
collision cross section (N2) ([1]; [M+Na]+): 166 Å² | collision cross section (N2) ([2]; [M+H]+): 152 Å² | collision cross section (N2) ([3]; [M+Na]+): 160.1 Å²

O=c1[nH]c(=O)c2[nH]cnc2[nH]1 [Xanthine]
collision cross section (N2) ([1]; [M+H]+): 138.11 Å² | collision cross section (N2) ([1]; [M+Na]+): 152.65 Å² | collision cross section (N2) ([2]; [M+H]+): 124 Å² | collision cross section (N2) ([3]; [M+H]+): 130.3 Å²
